# Records with an inconclusive call do not appear. The source made the active and inactive calls. The rule behind the calls is not given here.
# Test system: Mycobacterium tuberculosis non-replicating, growth inhibition
# Test: growth inhibition of non-replicating M. tuberculosis (AID 488890)
row,Compound,IC50
1,Cc1onc(-c2ccccc2)c1C(=O)O/N=C(\N)c1ccc([N+](=O)[O-])o1,25.8 µM (inactive)
2,CCOC(=O)c1sc2nc(CSc3ccccc3)nc(NCCN(C)C)c2c1C,14.9 µM (inactive)
3,O=C1CCCCC1Sc1nnc(-c2ccc3c(c2)OCO3)o1 (stereo not given),1.83 µM
4,CC(=O)c1cc2c(ccc3ccccc32)oc1=O,15.4 µM (inactive)
5,Cc1ccc(NC(=O)c2ccc([N+](=O)[O-])o2)cc1C,0.28 µM
6,COc1ccccc1N=Cc1nc(-c2ccccc2)oc1OC(C)=O,19.6 µM (inactive)
7,CCc1ccc(OCC(=O)Nc2ccncc2)c(Br)c1,6.25 µM
8,CCOC(=O)N1CCC(N2CCCC(C(=O)c3ccc4cc(OC)ccc4c3)C2)CC1 (stereo not given),18.7 µM (inactive)
9,Cc1cc2oc3ccc(NCCCn4ccnc4)cc3c(=O)c2cc1C,20.9 µM (inactive)
10,CCS(=O)(=O)c1ncc(Cl)c(C(=O)Nc2ccc(S(=O)(=O)N3CCC(C)CC3)cc2)n1,9.7 µM
11,CCCOc1ccc(N2CC(C(=O)Nc3ccccc3F)CC2=O)cc1 (stereo not given),15.8 µM (inactive)
12,CCn1c(O)c(C(=O)CC2NCCc3ccccc32)c(=O)n(CC)c1=S (stereo not given),21.8 µM (inactive)
13,Cc1[nH]n(-c2ccc(Cl)cc2)c(=O)c1N=Nc1cccnc1,1.37 µM
14,Fc1ccc(-c2nnc(CSc3nnc(-c4cccs4)o3)o2)cc1,3.68 µM
15,CCC(=O)Nc1nc2ccccc2n1Cc1ccc(C)cc1,20.5 µM (inactive)
16,O=C(CCC1CCCC1)c1c(O)c2ccccc2oc1=O,1.93 µM
17,CC(C)(C)C(=O)/C=C/Nc1ccccc1O,4.66 µM
18,O=C(NNc1nc2cc3c(cc2s1)OCCO3)c1ccccc1,23.5 µM (inactive)
19,CC(=O)Oc1ccc(/C=C2\N=C(C3CCCCC3)OC2=O)cc1,9.08 µM
20,O=C(OCc1ccc(Cl)c(Cl)c1)c1ccccn1,2.27 µM
21,Cc1ccc(C(=O)N/N=C\c2ccc(-c3ccc(Cl)cc3)o2)cn1,7.02 µM
22,CCCCCCCC(=O)N/N=C/c1ccc([N+](=O)[O-])o1,2.63 µM
23,Cc1ccc(Sc2ncccc2N)cc1,41.3 µM (inactive)

row,Compound,IC50
1,O=C(N/N=C/C=C/c1ccco1)c1ccncc1,1.19 µM
2,Cc1cccc(NCCC(=O)c2ccc([N+](=O)[O-])cc2)c1C,3.58 µM
3,O=C(Nc1cccc(NC(=O)c2cccs2)c1)c1ccc([N+](=O)[O-])o1,5.43 µM
4,Cc1ccnc(-n2c(C)cc(/C=C3\C(=O)NC(=S)N(C)C3=O)c2C)c1,25.7 µM (inactive)
5,C/C(=N\NC(=O)CCCNc1ccc(C)cc1)c1ccccn1,9.07 µM
6,CCOC(=O)c1ccc(-n2c(CCC(=O)O)ccc2-c2cccs2)cc1,36.2 µM (inactive)
7,COc1cccc(OCC(=O)NNC(=O)C(=O)Nc2cccc(C)c2)c1,6.72 µM
8,CCCCN(C)S(=O)(=O)c1ccc(C(=O)Nc2nnc(-c3ccco3)o2)cc1,23 µM (inactive)
9,Cc1ccc(NC(=O)COc2ccc(-n3ccnc3)cc2)cc1Cl,6.44 µM
10,Cc1cc(C)c2ccc(/C=N/O)nc2c1O,5.77 µM
11,OC(CNCCc1ccc(C(F)(F)F)cc1)COc1cccc2ccccc12 (stereo not given),9.03 µM
12,Cc1cccc(Nc2nc(-c3ccccn3)cs2)n1,0.95 µM
13,C/C(=N/Nc1ccnc2cc(Cl)ccc12)c1ccc(N)cc1,21.6 µM (inactive)
14,c1ccc(-c2ccccc2OCCCCn2ccnc2)cc1,33.5 µM (inactive)
15,CN(C)CCCN(C(=O)CCc1ccccc1)c1nc2ccc(Cl)cc2s1,12.7 µM (inactive)
16,CC1(c2nnc(-c3ccc(F)cc3)o2)CC(c2cccc(Cl)c2)=NO1 (stereo not given),2.9 µM
17,CCOc1cc(CNCCO)cc(Br)c1OCc1ccc(Cl)cc1,5.65 µM
18,CN(C)c1ccc(/C=C2\N=C(C(C)(C)C)OC2=O)cc1,9.11 µM
19,Cc1cccc(NC(=O)CCSc2nnc(Cc3ccccc3)o2)c1,4.09 µM
20,Cc1[nH]c2ccccc2c1C(=O)C(C)OC(=O)c1ccc([N+](=O)[O-])o1 (stereo not given),1.07 µM
21,NC(N)=N/N=C/c1cc([N+](=O)[O-])ccc1O,4.29 µM
22,Cc1cc(Br)ccc1OCC(=O)NNC(=O)C(=O)Nc1ccccc1,1.22 µM
23,O=C(COC(=O)CCc1c[nH]c2ccccc12)Nc1ccc([N+](=O)[O-])cc1,9.82 µM

row,Compound,IC50
1,CCCCN1C(=O)C2(NNc3ccccc3O2)c2ccccc21 (stereo not given),4.67 µM
2,O=C(c1ccccc1[N+](=O)[O-])N1N=C(c2ccccc2)CC1(O)C(F)(F)F (stereo not given),3.92 µM
3,CC1N(C)c2cccc3cccc(c23)N1C,36.8 µM (inactive)
4,O=c1c2c(nc3c(-c4ccc(Cl)cc4)c[nH]n13)CCC2,4.22 µM
5,S=C(Nc1ccc2c(c1)OCO2)Nc1ccc2c(c1)OCO2,12.8 µM (inactive)
6,Cc1cc(C)c2sc(NC(=O)C3=COCCO3)nc2c1,8.29 µM
7,Cc1cc(N/N=C/c2ccccc2[N+](=O)[O-])nc(-n2nc(C)cc2C)n1,1.96 µM
8,Oc1ccc(Cl)cc1C1=NNC(c2cccs2)C1 (stereo not given),3.85 µM
9,O=C(c1ccc(-c2ccc([N+](=O)[O-])cc2)o1)N1CCCCCCC1,11.6 µM (inactive)
10,CC(Oc1ccc(Cl)cc1)C(=O)NNC(=S)NC(=O)c1ccco1 (stereo not given),22.3 µM (inactive)
11,CCc1ccc(C(C)NC(=O)C2CCCO2)cc1 (stereo not given),8.61 µM
12,Cc1cc2nc(/N=C(\N)NC(=O)C(C)C)nc(C)c2cc1C,3.1 µM
13,CC(C)c1ccc(OCC(=O)NCc2ccccc2)cc1,19.2 µM (inactive)
14,Cc1ccc(CCC(=O)Nc2cc(Cl)ccc2Cl)o1,3.79 µM
15,COc1ccc(C(=O)COC(=O)CCC(=O)c2cccs2)cc1,34.2 µM (inactive)
16,COC12C(COC(N)=O)C3=C(C(=O)C(C)=C(N)C3=O)N1CC1C2N1C (stereo not given),0.12 µM
17,COc1ccc(N=N/C(=C\O)C(=O)c2ccco2)cc1,21.5 µM (inactive)
18,COc1ccc(C(=O)NNC(=S)NC(=O)c2cccc([N+](=O)[O-])c2)cc1,11.8 µM (inactive)
19,COc1cccc(-c2nnc(NC(=O)c3ccc(S(=O)(=O)N4CCOCC4)cc3)o2)c1,18.7 µM (inactive)
20,Cc1ccc2cc3c(nc2c1)OCC3,6.8 µM
21,Cc1ccn2c(Nc3ccccc3)c(-c3ccccn3)nc2c1,10.4 µM (inactive)
22,O=C(NCCCN1CCOCC1)c1ccc(CSc2ccc(Cl)cc2)cc1,29 µM (inactive)
23,COc1cc(/C=N/NC(=O)c2ccncc2)ccc1OC(=O)c1cccc(F)c1,3.53 µM

row,Compound,IC50
1,O=C(CCN1CCC(c2cccs2)=N1)c1cccs1,4.15 µM
2,O=C(Nc1nccs1)c1ccc(Br)cc1,39.5 µM (inactive)
3,Cc1ccc(C)c(NC(=O)COC(=O)c2cc3ccccc3oc2=O)c1,17 µM (inactive)
4,Cc1cc(C(=O)N/N=C/c2cccc(Cl)c2Cl)no1,1.01 µM
5,CCCCCC(=O)N/N=C(\C)c1ccccn1,9.55 µM
6,Cc1cc(/C=N\NC(=O)c2cccs2)c(C)n1-c1ccc2ncccc2c1,> 25 µM (inactive)
7,C=C1CCC[C@]2(C)C[C@H]3OC(=O)C(CNC(C)CCCC(C)C)[C@H]3CC12 (stereo not given in full),15.3 µM (inactive)
8,O=Cc1coc2ccc3ccccc3c2c1=O,16.3 µM (inactive)
9,CCOc1ccc(NCC(=O)c2ccc(C)cc2)cc1,4.95 µM
10,Oc1cc(NCc2cccnc2)ccc1-c1nc2ccccc2o1,47.1 µM (inactive)
11,CC(C)NC(=O)C1COc2ccccc2O1 (stereo not given),36.5 µM (inactive)
12,Cc1ccc(NC(=O)CCSc2nnc(-c3ccco3)o2)cc1,8.38 µM
13,Cc1ccc(N=Nc2c(C)[nH]n(C(N)=S)c2=O)cc1,2.35 µM
14,CCc1cc(C(c2ccncc2)N2CCN(C)CC2)c(NC(=O)c2ccccc2)s1 (stereo not given),10.6 µM (inactive)
15,Cc1[nH]n2c(=O)c3c(nc2c1-c1ccc(Cl)cc1)CCC3,3.4 µM
16,Nc1ccc(Nc2ccccc2)cc1,6 µM
17,O=c1c2cc(Br)ccc2nc(-c2cccc(C(F)(F)F)c2)n1O,0.43 µM
18,CC(CN1CCOCC1)OC(=O)c1ccc2c(c1)OCCO2 (stereo not given),33.5 µM (inactive)
19,O=C(COc1ccc2ccccc2c1)N/N=C/c1ccccn1,6.72 µM
20,O=C(Nc1nnc(-c2ccccn2)o1)c1cccc(Cl)c1,11.4 µM (inactive)
21,CCOc1cccc2cc(C(=O)NCc3ccccc3)c(=N)oc12,10.2 µM (inactive)
22,Cc1cc(CC(C)C)n(-c2nc3ccccc3c(=O)n2OCC(N)=O)n1,16.1 µM (inactive)
23,Cc1ccc(C(=O)NNC(=S)NC(=O)c2ccc(Cl)cc2)cc1,4.01 µM

row,Compound,IC50
1,Cc1c(CN(C)C)c2c(n1Cc1ccccc1)C(=O)c1ccc(Br)cc1-2,16 µM (inactive)
2,O=C1N=c2ccccc2=C1c1c(O)n(-c2cccc(F)c2)[nH]c1=O,6.91 µM
3,CC(C)c1ccc2c(c1)C(N1CCNCC1)Cc1ccc(F)cc1S2 (stereo not given),14.5 µM (inactive)
4,O=C(N/N=C1\CCCc2c1[nH]c1ccc(Cl)cc21)c1ccncc1,1.78 µM
5,O=C(Nc1sc2c(c1C(=O)O)CCCCC2)c1ccccc1F,15.6 µM (inactive)
6,Clc1ccc(OCCOCCN2CCc3ccccc3C2)c(Cl)c1,11.2 µM (inactive)
7,COc1ccc(OC)c(NC(=O)C(=O)NNC(=O)C23CC4CC(CC(C4)C2)C3)c1,5.4 µM
8,Cc1ccc(NC(=O)C(=O)NNC(=O)c2ccccc2C)cc1Cl,2.67 µM
9,CCN(CC)c1ccc(NC2CC(=O)N(CCc3ccc(OC)cc3)C2=O)cc1 (stereo not given),25.6 µM (inactive)
10,COc1ccc(OCCOC(=O)c2cccs2)cc1,27.6 µM (inactive)
11,CCOC(=O)Cn1c2ccc(F)cc2c2nc(C)sc21,13.8 µM (inactive)
12,Cc1nc([N+](=O)[O-])c(Br)n1Cc1ccccc1,14.1 µM (inactive)
13,CC1CCc2c(sc3nc(CSc4ncn[nH]4)[nH]c(=O)c23)C1 (stereo not given),14.4 µM (inactive)
14,Cc1[nH]c2ccccc2c1C(=O)COC(=O)c1ccc([N+](=O)[O-])s1,0.65 µM
15,CCn1c(=O)c(C(=O)Nc2ncccc2C)c(O)c2ccccc21,9.94 µM
16,Cc1ccn2nc(S(=O)(=O)Nc3c(F)cccc3F)nc2n1,17.5 µM (inactive)
17,CC1CCN(C(=O)c2ccc(-c3ccccc3Cl)o2)CC1,5.32 µM
18,O=C(CCN1C(=O)/C(=C/c2ccccc2Cl)SC1=S)N1CCCC1,7.03 µM
19,Cc1cccc(/C=C/c2onc(C)c2[N+](=O)[O-])n1,15 µM (inactive)
20,CSc1ccccc1NC(=O)c1cc(C(C)C)on1,22.2 µM (inactive)
21,O=C(Nc1nnc(C2COc3ccccc3O2)o1)c1ccc(F)cc1 (stereo not given),7.16 µM
22,O=C1/C(=C/c2ccco2)CCC1C1CCCC1 (stereo not given),13.8 µM (inactive)
23,Cc1ccccc1C(=O)Nc1nnc(-c2ccco2)o1,4.97 µM

# From PubChem BioAssay AID488890 (Southern Research Specialized Biocontainment Screening …, 2010)
